From US20240391862A1, “(1,4,5-TRISUBSTITUTED-1H-PYRAZOL-3-YL)OXY-2-ALKOXY ALKYL ACIDS AND THEIR DERIVATIVES, THEIR SALTS AND THEIR USE AS HERBICIDAL AGENTS” (Bayer AKtiengesellschaft, priority 2021, published 2024)

Assays:
ORYSA [1] = experiment: Pre-emergence herbicidal effect and crop plant compatibility, greenhouse pot test; assay type: in vivo, Oryza sativa; settings: scored visually after about 3 weeks vs untreated controls
Text: (§1) Seeds of monocotyledonous and dicotyledonous weed plants and crop plants are placed in plastic or organic planting pots and covered with soil. The compounds of the invention, formulated in the form of wettable powders (WP) or as emulsion concentrates (EC), are then applied to the surface of the covering soil as aqueous suspension or emulsion with addition of 0.5% additive at a water application rate equivalent to 600 l/ha. After the treatment, the pots are placed in a greenhouse and kept under good growth conditions for the trial plants. After about 3 weeks, the effect of the preparations is scored visually in comparison with untreated controls as percentages. For example, 100% activity=the plants have died, 0% activity=like control plants.
(§2) Tables 1a to 19c below show the effects/crop compatibilities of selected compounds of the general formula (I) on various harmful plants at an application rate corresponding to 20 to 320 g/ha, which were obtained by the trial procedure specified above.
(§3) • ALOMY: Alopecurus myosuroides SETVI: Setaria viridis • AVEFA: Avena fatua POLCO: Fallopia convolvulus • AMARE: Amaranthus retroflexus ECHCG: Echinochloa crus-galli • LOLRJ: Lolium rigidum STEME: Stellaria media • VERPE: Veronica persica MATIN: Tripleurospermum inodorum • DIGSA: Digitaria sanguinalis ABUTH: Abutylon threophrasti • TRZAS: Triticum aestivum VIOTR: Viola tricolor • BRSNW: Brassica napus ZEAMX: Zea mays • PHBPU: Ipomoea purpurea GLXMA: Glycine max • ORYSA: Oryza sativa HORMU: Hordeum murinum

ORYSA [2] = experiment: Post-emergence herbicidal effect and crop plant compatibility, greenhouse pot test; assay type: in vivo, Oryza sativa; settings: 320 g/ha, one-leaf stage, rated visually after about 3 weeks vs untreated controls
How it was run: (§4)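 Greenhouse pot test: weeds and crops sown in sandy loam, sprayed post-emergence at one-leaf stage (2–3 weeks after sowing) with WP or EC formulations plus 0.5% additive at 600 l/ha water, rates 20–320 g/ha. Visual rating about 3 weeks later versus untreated controls (100% = dead, 0% = as control).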

SETVI [3] = experiment: Pre-emergence herbicidal effect, greenhouse pot test; assay type: in vivo, Setaria viridis; settings: Setaria viridis, 504 h, 320 g/ha, scored visually after about 3 weeks vs untreated controls, read-out: Pre-emergence effect at 320 g/ha against SETVI in %
Text: as §1, §2, §3

BRSNW = experiment: Pre-emergence herbicidal effect and crop plant compatibility, greenhouse pot test; assay type: in vivo, Brassica napus; settings: scored visually after about 3 weeks vs untreated controls
Text: as §1, §2, §3

GLXMA = experiment: as above; assay type: in vivo, Glycine max; settings: scored visually after about 3 weeks vs untreated controls
Text: as §1, §2, §3

ZEAMX [4] = experiment: Post-emergence herbicidal effect and crop plant compatibility, greenhouse pot test; assay type: in vivo, Zea mays; settings: Zea mays, 504 h, 80 g/ha, one-leaf stage, rated visually after about 3 weeks vs untreated controls, read-out: Post-emergence effect at 80 g/ha against ZEAMX in %
How it was run: as §4

VERPE = experiment: Post-emergence herbicidal effect, greenhouse pot test; assay type: in vivo, Veronica persica; settings: Veronica persica, 504 h, 320 g/ha, read-out: Post-emergence effect against VERPE in %
How it was run: as §4

SETVI [5] = experiment: as above; assay type: in vivo, Setaria viridis; settings: Setaria viridis, 504 h, 320 g/ha, read-out: Post-emergence effect against SETVI in %
How it was run: as §4

ECHCG = experiment: as above; assay type: in vivo, Echinochloa crus-galli; settings: Echinochloa crus-galli, 504 h, 320 g/ha, read-out: Post-emergence effect against ECHCG in %
How it was run: as §4

AMARE = experiment: Pre-emergence herbicidal effect, greenhouse pot test; assay type: in vivo, Amaranthus retroflexus; settings: Amaranthus retroflexus, 504 h, 320 g/ha, scored visually after about 3 weeks vs untreated controls, read-out: Pre-emergence effect at 320 g/ha against AMARE in %
Text: as §1, §2, §3

TRZAS = experiment: Pre-emergence herbicidal effect and crop plant compatibility, greenhouse pot test; assay type: in vivo, Triticum aestivum; settings: scored visually after about 3 weeks vs untreated controls
Text: as §1, §2, §3

ZEAMX [6] = experiment: as above; assay type: in vivo, Zea mays; settings: scored visually after about 3 weeks vs untreated controls
Text: as §1, §2, §3

ALOMY = experiment: Post-emergence herbicidal effect, greenhouse pot test; assay type: in vivo, Alopecurus myosuroides; settings: Alopecurus myosuroides, 504 h, 320 g/ha, visual rating about 3 weeks after treatment, read-out: Post-emergence effect against ALOMY
How it was run: as §4

MATIN = experiment: as above; assay type: in vivo, Tripleurospermum inodorum; settings: Tripleurospermum inodorum, 504 h, 320 g/ha, read-out: Post-emergence effect against MATIN in %
How it was run: as §4

| SMILES | Pre-emergence effect at 80 g/ha against ORYSA in % (ORYSA [1]) [%] | Pre-emergence effect at 320 g/ha against ORYSA in % (ORYSA [1]) [%] | Post-emergence effect at 320 g/ha against ORYSA in % (ORYSA [2]) [%] | pest or weed control at 320 g/ha (SETVI [3]) [%] | Pre-emergence effect at 80 g/ha against BRSNW in % (BRSNW) [%] | Pre-emergence effect at 320 g/ha against BRSNW in % (BRSNW; 320 g/ha) [%] | Pre-emergence effect at 80 g/ha against GLXMA in % (GLXMA) [%] | Pre-emergence effect at 320 g/ha against GLXMA in % (GLXMA; 320 g/ha) [%] | plant injury at 80 g/ha (ZEAMX [4]) [%] | pest or weed control at 320 g/ha (VERPE) [%] | pest or weed control at 320 g/ha (SETVI [5]) [%] | pest or weed control at 320 g/ha (ECHCG) [%] | pest or weed control at 320 g/ha (AMARE) [%] | Pre-emergence effect at 320 g/ha against TRZAS in % (TRZAS) [%] | Pre-emergence effect at 80 g/ha against ZEAMX in % (ZEAMX [6]) [%] | Pre-emergence effect at 320 g/ha against ZEAMX in % (ZEAMX [6]) [%] | pest or weed control at 320 g/ha (ALOMY) [%] | Pre-emergence effect at 80 g/ha against TRZAS in % (TRZAS; 80 g/ha) [%] | pest or weed control at 320 g/ha (MATIN) [%] |
| --- | --- | --- | --- | --- | --- | --- | --- | --- | --- | --- | --- | --- | --- | --- | --- | --- | --- | --- | --- |
| CCOC(=O)C(OCC)Oc1nn(-c2ncccc2F)c(-c2ccc(Cl)cc2)c1Br (stereo not drawn) [Example I-02] | 0 | 0 | 10 | 80 | 0 | 0 | 0 | 0 | 10 |  |  |  |  |  |  |  |  |  |  |
| COC(=O)C(OC)Oc1nn(-c2ncccc2F)c(-c2ccc(Cl)cc2)c1Br (stereo not drawn) [Example I-03] | 0 |  | 10 |  | 20 |  | 20 |  | 20 | 90 | 80 | 80 | 80 | 0 | 20 | 20 |  |  |  |
| CCOC(=O)C(OCC)Oc1nn(-c2ncccc2F)c(-c2ccc(F)cc2F)c1Br (stereo not drawn) [Example I-08] | 0 | 0 |  |  |  |  | 0 |  |  | 80 | 80 | 80 |  | 0 | 0 | 10 | 90 | 0 | 80 |
